According to article PMC8495968, “Towards optimizing peptide-based inhibitors of protein–protein interactions: predictive saturation variation scanning (PreSaVS)” (RSC Chemical Biology, 2021):
Like-named read-outs stand apart in the source and are kept apart here.

Legend:
[1] = biological target: T1, hSUMO-1 18-97 (Homo sapiens, UniProt P63165); assay: Fluorescence anisotropy competition assay, FITC-peg-SIM tracer / SUMO; format: binding; details: competition FA, 50 mM Tris, 150 mM NaCl, 25 nM tracer, 100 nM SUMO, read after 45 min, triplicate
T1 construct: 18-97; His-TEV (N, cleaved yes); made in house
Description: hSUMO-1 18-97 was expressed and purified as previously described from a pet19b His-TEV-SUMO-1 (18-97) construct with cleavage of the tag using TEV protease.4 […]
Fluorescence anisotropy assays were performed in 384-well plates (Greiner Bio-one). Each experiment was run in triplicate and the fluorescence anisotropy measured using a Perkin Elmer EnVisionTM 2103 MultiLabel plate reader, with excitation at 480 nm (30 nm bandwidth), polarised dichroic mirror at 505 nm and emission at 535 nm (40 nm bandwidth, S and P polarised). All assays were performed in 20 mM Tris, 100 mM NaCl, 0.1 mM DTT, pH 7.5 unless otherwise stated and data analysed following previously published methods.
Fluorescence anisotropy data was processed as described previously.[2] Briefly. the data from both the P (perpendicular intensity) and S (parallel intensity) channels, resulting from this measurement and corrected by subtracting the corresponding control wells, were used to calculate the intensity and anisotropy for each well following Equations 1 and 2: […]
For direct titration the average anisotropy (across three experimental replicates) and the standard deviation of these values were then calculated and fit to a logistic model using OriginPro 9.0 to determine the maximum and minimum anisotropies then the fraction bound calculated (Equation 3) and used to determine Kd (equation 4)
Lb= (r‒rmin)/λ(rmax‒r)+r‒rmin Equation 3
y= {(k+ x+[ FL])‒√{k+x+[FL] 2‒4x[FL]}}/2 Equation 4 r = anisotropy, I = total intensity, P = perpendicular intensity, S = parallel intensity, G = instrument factor which was set to 1 for all experiments, Lb = fraction ligand bound, λ = […]
(§1) For competition experiments, the anisotropies were determined as for the direct titration and then plotted against inhibitor concentration and fit (equation 5) to determine the IC50 and error […]
(§2) y = rmax + (rmin-rmax)/(1+(x/xo)p) Equation 5
Where xo represents the IC50 […]
(§3) Competition binding assays:
(§4) FA competition assays were performed in 384 well plates with the concentration of variant […]
(§5) with fixed protein and tracer concentrations. FITC-labelled peptide was added to each well to […]
For control wells, the tracer peptide was replaced with an identical volume of assay buffer.
The total volume in each well was 60 μL. […]

[2] = Solubility, qualitative test
Description: (1 picture or pasted object on this page, not shown here)
as §1, §2
Where xo represents the IC50
Fluorescence anisotropy direct titration assays were performed with protein concentration diluted over 16-24 points using 2-fold dilutions. Followed by addition of tracer peptide was added to the wells. For control wells, the tracer peptide was replaced with an identical volume of assay buffer. Plates were read after 45 minutes.
as §3, §4, §5
The total volume in each well was 60 μL. Plates were read after 45 minutes of incubation at […]
ITC experiments were carried out using a Microcal ITC200i instrument (Malvern) at 25°C in 20 mM Tris, 150 mM NaCl, pH 7.5 buffer. […] Data was analysed using Microcal Origin 8 and fitted to a one-binding site model
Spectra were recorded on a Chirascan circular dichroism spectropolarimeter (Applied Photophysics), at 20°C, using 1 mm cells and a scan speed of 5 nm/min. […]
Peptide solubility was assessed using a qualitative test. […]

T1 sequence (P63165 18-97): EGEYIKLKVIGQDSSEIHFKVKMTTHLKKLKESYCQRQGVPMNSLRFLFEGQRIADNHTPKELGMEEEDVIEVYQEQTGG

IC50 [1] [µM] | maximum solubility / concentration obtained ([2]; qualitative test) [mM] | maximum solubility / concentration obtained [2] | Structure (SMILES)
14.8 ± 0.7 | > 8 |  | CC[C@H](C)[C@H](NC(=O)[C@@H](NC(=O)[C@H](CCC(=O)O)NC(=O)[C@H](CC(=O)O)NC(=O)[C@H](CCC(=O)O)NC(=O)[C@H](CC(N)=O)NC(=O)[C@H](CC(=O)O)NC(C)=O)C(C)C)C(=O)N[C@H](C(=O)N[C@H](C(=O)N[C@@H](Cc1c[nH]c2ccccc12)C(=O)N[C@@H](CCC(=O)O)C(=O)N[C@@H](CCCCN)C(=O)N[C@@H](CCCCN)C(N)=O)C(C)C)[C@@H](C)CC [SIM2705–2717I2708D]
 |  | ~ 1 mM | CC[C@H](C)[C@H](NC(=O)[C@H](CCC(=O)O)NC(=O)[C@H](CC(N)=O)NC(=O)[C@H](CC(=O)O)NC(C)=O)C(=O)N[C@@H](CCC(=O)O)C(=O)N[C@H](C(=O)N[C@H](C(=O)N[C@H](C(=O)N[C@H](C(=O)N[C@@H](Cc1c[nH]c2ccccc12)C(=O)N[C@@H](CCC(=O)O)C(=O)N[C@@H](CCCCN)C(=O)N[C@@H](CCCCN)C(N)=O)C(C)C)[C@@H](C)CC)[C@@H](C)CC)C(C)C [SIM2705–2717]
